Data as given in ChEMBL document CHEMBL1201862, “PubChem BioAssay data set” (2004).
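Dose response: 5 concentrations. Exposure: 48 h. Format: 96-well plates. Endpoint: linear interpolation; highest concentration if not reached. Abbreviation: GI50, concentration required for 50% inhibition of growth.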 The source made the active and inactive calls. No stated cut-off is given here; in the data, active = GI50 up to about 1.1 µM and inactive = higher.

What was measured:
Test in all cases: growth of human tumour cells (NCI), 48 h
[1] = system: 786-0
[2] = system: A498
[3] = system: A549
[4] = system: ACHN
[5] = system: BT-549
[6] = system: CAKI-1
[7] = system: CCRF-CEM
[8] = system: COLO 205
[9] = system: DLD-1
[10] = system: DMS-114
[11] = system: DMS-273
[12] = system: DU-145
[13] = system: EKVX
[14] = system: HCC 2998
[15] = system: HCT-116
[16] = system: HCT-15
[17] = system: HL-60
[18] = system: HOP-18
[19] = system: HOP-62
[20] = system: HOP-92
[21] = system: HT-29
[22] = system: Hs-578T
[23] = system: IGROV-1
[24] = system: K562
[25] = system: KM-20L2
[26] = system: KM12
[27] = system: LOX IMVI
[28] = system: M14
[29] = system: M19-MEL
[30] = system: MCF7
[31] = system: MDA-MB-231
[32] = system: MDA-MB-435
[33] = system: MDA-N
[34] = system: MOLT-4
[35] = system: Malme-3M
[36] = system: NCI-H226
[37] = system: NCI-H23
[38] = system: NCI-H460
[39] = system: NCI-H522
[40] = system: NCI/ADR-RES
[41] = system: OVCAR-3
[42] = system: OVCAR-4
[43] = system: OVCAR-5
[44] = system: OVCAR-8
[45] = system: PC-3
[46] = system: RPMI-8226
[47] = system: RXF 393
[48] = system: SF-268
[49] = system: SF-295
[50] = system: SF-539
[51] = system: SK-MEL-28
[52] = system: SK-MEL-2
[53] = system: SK-MEL-5
[54] = system: SK-OV-3
[55] = system: SN12C
[56] = system: SNB-19
[57] = system: SNB-75
[58] = system: SNB-78
[59] = system: SR
[60] = system: SW-620
[61] = system: T47D
[62] = system: TK-10
[63] = system: U-251
[64] = system: UACC-257
[65] = system: UACC-62
[66] = system: UO-31
[67] = system: XF498
[68] = system: LXFL 529

## Cc1cc(N(CC(C)Br)CC(C)Br)ccc1/N=N/c1ccccc1C(=O)O (stereo not drawn)
[1]
  GI50: 2.77 µM (inactive)
[2]
  GI50: 1.67 µM (inactive)
[3]
  GI50: 3.04 µM (inactive)
[4]
  GI50: 2.79 µM (inactive)
[5]
  GI50: 11.3 µM (inactive)
[6]
  GI50: 2.49 µM (inactive)
[7]
  GI50: 19.6 µM (inactive)
[8]
  GI50: 5.47 µM (inactive)
[9]
  GI50: 3.93 µM (inactive)
[10]
  GI50: 1.22 µM (inactive)
[11]
  GI50: 4.59 µM (inactive)
[12]
  GI50: 7.67 µM (inactive)
[13]
  GI50: 9.12 µM (inactive)
[14]
  GI50: 1.15 µM (inactive)
[15]
  GI50: 4.99 µM (inactive)
[16]
  GI50: 8.81 µM
[17]
  GI50: 6.05 µM (inactive)
[18]
  GI50: 2.64 µM (inactive)
[19]
  GI50: 4.71 µM (inactive)
[20]
  GI50: 2.24 µM (inactive)
[21]
  GI50: 4.85 µM (inactive)
[22]
  GI50: 11.1 µM (inactive)
[23]
  GI50: 11 µM (inactive)
[24]
  GI50: 1.03 µM (active)
[25]
  GI50: 8.75 µM (inactive)
[26]
  GI50: 13.4 µM (inactive)
[27]
  GI50: 7.59 µM (inactive)
[28]
  GI50: 6.04 µM (inactive)
[29]
  GI50: 12.2 µM (inactive)
[30]
  GI50: 0.787 µM (active)
[31]
  GI50: 14.8 µM (inactive)
[32]
  GI50: 16.3 µM (inactive)
[33]
  GI50: 4.23 µM (inactive)
[34]
  GI50: 16.9 µM (inactive)
[35]
  GI50: 4.61 µM (inactive)
[36]
  GI50: 4.52 µM (inactive)
[37]
  GI50: 3.81 µM (inactive)
[38]
  GI50: 0.454 µM (active)
[39]
  GI50: 3.03 µM (inactive)
[40]
  GI50: 15.2 µM (inactive)
[41]
  GI50: 16.9 µM (inactive)
[42]
  GI50: 2.09 µM (inactive)
[43]
  GI50: 2.74 µM (inactive)
[44]
  GI50: 13.2 µM (inactive)
[45]
  GI50: 12.9 µM (inactive)
[46]
  GI50: 1.75 µM (inactive)
[47]
  GI50: 0.881 µM (active)
[48]
  GI50: 7.73 µM (inactive)
[49]
  GI50: 0.948 µM (active)
[50]
  GI50: 1.45 µM (inactive)
[51]
  GI50: 1.93 µM (inactive)
[52]
  GI50: 2.93 µM (inactive)
[53]
  GI50: 3.19 µM (inactive)
[54]
  GI50: 13.1 µM (inactive)
[55]
  GI50: 4.72 µM (inactive)
[56]
  GI50: 9.04 µM (inactive)
[57]
  GI50: 2.43 µM (inactive)
[58]
  GI50: 11.1 µM (inactive)
[59]
  GI50: 2.62 µM (inactive)
[60]
  GI50: 20 µM (inactive)
[61]
  GI50: 0.592 µM (active)
[62]
  GI50: 11.7 µM (inactive)
[63]
  GI50: 4.8 µM (inactive)
[64]
  GI50: 4.53 µM (inactive)
[65]
  GI50: 1.52 µM (inactive)
[66]
  GI50: 5.86 µM (inactive)
[67]
  GI50: 1.95 µM (inactive)

## Cc1c2ccncc2c(C)c2c1[nH]c1ccc(O)c(OCC(F)(F)F)c12
[1]
  GI50: 2.01 µM (inactive)
[2]
  GI50: 15.2 µM (inactive)
[3]
  GI50: 3.9 µM (inactive)
[6]
  GI50: 9.62 µM (inactive)
[7]
  GI50: 2.33 µM (inactive)
[8]
  GI50: 11.9 µM (inactive)
[9]
  GI50: 8 µM (inactive)
[10]
  GI50: 2.44 µM (inactive)
[11]
  GI50: 1.79 µM (inactive)
[13]
  GI50: 10.3 µM (inactive)
[14]
  GI50: 9.42 µM (inactive)
[15]
  GI50: 2.39 µM (inactive)
[17]
  GI50: 2.9 µM (inactive)
[19]
  GI50: 10.8 µM (inactive)
[20]
  GI50: 5.47 µM (inactive)
[21]
  GI50: > 7.5 µM (inactive)
[23]
  GI50: 8.22 µM (inactive)
[24]
  GI50: 3.16 µM (inactive)
[25]
  GI50: 12.2 µM (inactive)
[27]
  GI50: 1.38 µM (inactive)
[68]
  GI50: 5.12 µM (inactive)
[28]
  GI50: 9.55 µM (inactive)
[34]
  GI50: 2.01 µM (inactive)
[35]
  GI50: 11.9 µM (inactive)
[36]
  GI50: 8.13 µM (inactive)
[37]
  GI50: 6.1 µM (inactive)
[38]
  GI50: 2.18 µM (inactive)
[39]
  GI50: 4.5 µM (inactive)
[41]
  GI50: 7.8 µM (inactive)
[42]
  GI50: 4.08 µM (inactive)
[43]
  GI50: 12.6 µM (inactive)
[44]
  GI50: 3.03 µM (inactive)
[46]
  GI50: 2.1 µM (inactive)
[48]
  GI50: 8.67 µM (inactive)
[49]
  GI50: 5.21 µM (inactive)
[50]
  GI50: 6.05 µM (inactive)
[51]
  GI50: 10.8 µM (inactive)
[52]
  GI50: 12 µM (inactive)
[53]
  GI50: 5.56 µM (inactive)
[54]
  GI50: 10.2 µM (inactive)
[55]
  GI50: 8.2 µM (inactive)
[56]
  GI50: 2.11 µM (inactive)
[57]
  GI50: 9.93 µM (inactive)
[58]
  GI50: 4.47 µM (inactive)
[60]
  GI50: 3.55 µM (inactive)
[62]
  GI50: 13.6 µM (inactive)
[63]
  GI50: 2.7 µM (inactive)
[64]
  GI50: 10.6 µM (inactive)
[65]
  GI50: 10.5 µM (inactive)
[66]
  GI50: 9.66 µM (inactive)
[67]
  GI50: 12.6 µM (inactive)
